Test results: patent US8273776B2, “Biphenyl oxadiazole derivatives as sphingosine-1-phosphate receptors modulators” (Allergan, Inc, priority 2010, dated 2012)

Molecular target: T1, human S1P1 receptor (Homo sapiens, UniProt P21453)
T1 construct: expressed in transfected cells; membranes used
Test: GTP γ35S binding assay for S1P1 activity
Assay type: biochemical
Settings: for % S1P1 STIMULATION @ 5 μM (%): GTPγ^35S binding, compound at 5 μM; for EC50: membranes of cells stably expressing the S1P1 receptor, test compounds 0.08 to 5,000 nM, read-out: S1P1 GTPγ^35S EC50
Protocol: Compounds were synthesized and tested for S1P1 activity using the GTP γ^35S binding assay. These compounds may be assessed for their ability to activate or block activation of the human S1P1 receptor in cells stably expressing the S1P1 receptor.
GTP γ^35S binding was measured in the medium containing (mM) HEPES 25, pH 7.4, MgCl2 10, NaCl 100, dithitothreitol 0.5, digitonin 0.003%, 0.2 nM GTP γ^35S, and 5 μg membrane protein in a volume of 150 μl. Test compounds were included in the concentration range from 0.08 to 5,000 nM unless indicated otherwise. Membranes were incubated with 100 μM 5′-adenylylimmidodiphosphate for 30 min, and subsequently with 10 μM GDP for 10 min on ice. Drug solutions and membrane were mixed, and then reactions were initiated by adding GTP γ^35S and continued for 30 min at 25° C. Reaction mixtures were filtered over Whatman GF/B filters under vacuum, and washed three times with 3 mL of ice-cold buffer (HEPES 25, pH7.4, MgCl2 10 and NaCl 100). Filters were dried and mixed with scintillant, and counted for ^35S activity using a β-counter. Agonist-induced GTP γ^35S binding was obtained by subtracting that in the absence of agonist. Binding data were analyzed using a non-linear regression method. In case of antagonist assay, the reaction mixture contained 10 nM S1P in the presence of test antagonist at concentrations ranging from 0.08 to 5000 nM.

T1 sequence (P21453 whole entry): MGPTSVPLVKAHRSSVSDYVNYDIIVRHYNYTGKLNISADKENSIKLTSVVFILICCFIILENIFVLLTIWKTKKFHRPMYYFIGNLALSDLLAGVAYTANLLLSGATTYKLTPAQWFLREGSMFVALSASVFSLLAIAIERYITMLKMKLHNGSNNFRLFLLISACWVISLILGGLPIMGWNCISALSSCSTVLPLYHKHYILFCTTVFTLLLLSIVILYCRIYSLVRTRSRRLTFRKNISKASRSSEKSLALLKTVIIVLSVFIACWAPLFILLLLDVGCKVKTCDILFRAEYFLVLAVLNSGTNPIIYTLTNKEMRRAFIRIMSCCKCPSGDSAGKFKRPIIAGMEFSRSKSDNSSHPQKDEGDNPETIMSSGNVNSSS

Row | % S1P1 STIMULATION @ 5 μM (%) | EC50 [nM] | SMILES
1 | 76 | 1420 | CC(C)Oc1ccc(-c2nc(-c3ccccc3-c3cccc(OCCCO)c3)no2)cc1C#N [Compound 1, 5-{3-[3′-(3-Hydroxy-propoxy)-biphenyl-2-yl]-[1,2,4]oxadiazol-5-yl}-2-isopropoxy-benzonitrile]
2 | 96 | 552 | O=C(O)CNCCCOc1cccc(-c2ccccc2-c2noc(-c3ccc(-c4cccc(F)c4)c(C(F)(F)F)c3)n2)c1 [Compound 2, (3-{2′-[5-(3′-Fluoro-2-trifluoromethyl-biphenyl-4-yl)-[1,2,4]oxadiazol-3-yl]-biphenyl-3-yloxy}-propylamino)acetic acid]
3 | 85 | 82 | CC(C)Oc1ccc(-c2nc(-c3ccccc3-c3cccc(OCCCNCC(=O)O)c3)no2)cc1C#N [Compound 3, (3-{2′-[5-(3-Cyano-4-isopropoxy-phenyl)-[1,2,4]oxadiazol-3-yl]-biphenyl-3-yloxy}-propylamino)-acetic acid]
